Laboratory results from the supplement of paper PMC10307832.

Legend:
Test in all cases: relative viability (nuclei count vs DMSO), 5 days (fraction); higher = more cells survive
Sorafenib + AZD7762 = compound: CNC(=O)c1cc(Oc2ccc(NC(=O)Nc3ccc(Cl)c(C(F)(F)F)c3)cc2)ccn1 [Sorafenib] + NC(=O)Nc1cc(-c2cccc(F)c2)sc1C(=O)N[C@H]1CCCNC1 [AZD7762] (partner 0.2 µM)
In short: (§1)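 A single step with final 0.05% Triton X-100, 1% formaldehyde and 1 ug/ml Hoechst fixed the cells and stained nuclei 5 days after treatment. Lung cancer cell lines in 1536-well plates had been treated by pin tool the day after seeding with one drug alone or a fixed anchor-drug dose plus five library-drug doses (not always all listed) in √10 steps, and nuclei were counted on 4× images. Relative viability is the ratio of nuclei in treated wells to nuclei in vehicle wells, taken as the median of duplicate plates.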

Sorafenib + Palbociclib = compound: CNC(=O)c1cc(Oc2ccc(NC(=O)Nc3ccc(Cl)c(C(F)(F)F)c3)cc2)ccn1 [Sorafenib] + CC(=O)c1c(C)c2cnc(Nc3ccc(N4CCNCC4)cn3)nc2n(C2CCCC2)c1=O [Palbociclib] (partner 0.5 µM)
In short: as §1

Sorafenib + Pemetrexed = compound: CNC(=O)c1cc(Oc2ccc(NC(=O)Nc3ccc(Cl)c(C(F)(F)F)c3)cc2)ccn1 [Sorafenib] + Nc1nc2[nH]cc(CCc3ccc(C(=O)N[C@@H](CCC(=O)O)C(=O)O)cc3)c2c(=O)[nH]1 [Pemetrexed] (partner 0.2 µM)
In short: as §1

Sorafenib + Crizotinib = compound: CNC(=O)c1cc(Oc2ccc(NC(=O)Nc3ccc(Cl)c(C(F)(F)F)c3)cc2)ccn1 [Sorafenib] + C[C@@H](Oc1cc(-c2cnn(C3CCNCC3)c2)cnc1N)c1c(Cl)ccc(F)c1Cl [Crizotinib] (partner 1 µM)
In short: as §1

Sorafenib + Linsitinib = compound: CNC(=O)c1cc(Oc2ccc(NC(=O)Nc3ccc(Cl)c(C(F)(F)F)c3)cc2)ccn1 [Sorafenib] + C[C@]1(O)C[C@@H](c2nc(-c3ccc4ccc(-c5ccccc5)nc4c3)c3c(N)nccn32)C1 [Linsitinib] (partner 1 µM)
In short: as §1

Row | Cell Line | relative viability (Sorafenib + AZD7762; first compound 0.08 µM) | relative viability (Sorafenib + AZD7762; first compound 0.253 µM) | relative viability (Sorafenib + AZD7762; first compound 2.53 µM) | relative viability (Sorafenib + AZD7762; first compound 8 µM) | relative viability (Sorafenib + Palbociclib; first compound 0.08 µM) | relative viability (Sorafenib + Palbociclib; first compound 0.253 µM) | relative viability (Sorafenib + Palbociclib; first compound 2.53 µM) | relative viability (Sorafenib + Palbociclib; first compound 8 µM) | relative viability (Sorafenib + Pemetrexed; first compound 0.08 µM) | relative viability (Sorafenib + Pemetrexed; first compound 0.253 µM) | relative viability (Sorafenib + Pemetrexed; first compound 2.53 µM) | relative viability (Sorafenib + Pemetrexed; first compound 8 µM) | relative viability (Sorafenib + Crizotinib; first compound 0.08 µM) | relative viability (Sorafenib + Crizotinib; first compound 0.253 µM) | relative viability (Sorafenib + Crizotinib; first compound 2.53 µM) | relative viability (Sorafenib + Crizotinib; first compound 8 µM) | relative viability (Sorafenib + Linsitinib; first compound 0.08 µM) | relative viability (Sorafenib + Linsitinib; first compound 0.253 µM) | relative viability (Sorafenib + Linsitinib; first compound 2.53 µM) | relative viability (Sorafenib + Linsitinib; first compound 8 µM)
1 | NCI-H522 | 1.1 | 0.556 | 0.874 | 0.723 | 0.988 | 0.92 | 1.2 | 0.591 | 1.02 | 0.782 | 0.863 | 0.883 | – | – | – | – | – | – | – | –
2 | NCI-H596 | 1.21 | 1 | 0.94 | 0.819 | – | – | – | – | 0.495 | 0.47 | 0.563 | 0.52 | 0.963 | 0.982 | 1.06 | 0.957 | 1.06 | 0.982 | 1.07 | 1.26
3 | NCI-H661 | – | – | – | – | 0.4 | 0.408 | 0.385 | 0.289 | 0.918 | 0.688 | 0.883 | 0.427 | 0.944 | 0.969 | 0.921 | 0.742 | 0.816 | 0.57 | 0.55 | 0.417
4 | NCI-H727 | 0.716 | 0.6 | – | 0.502 | 0.688 | 0.616 | 0.681 | 0.569 | – | – | – | – | 0.979 | 0.797 | 0.706 | 0.357 | 0.29 | 0.226 | 0.33 | 0.231
5 | NCI-H1395 | 0.424 | – | 0.428 | 0.429 | 0.696 | – | 0.613 | 0.644 | 1 | – | 0.917 | – | – | – | – | – | 1.15 | 0.901 | 0.991 | 1.13
6 | NCI-H1563 | – | – | – | – | – | – | – | – | 0.969 | 0.654 | 0.775 | 0.659 | 0.893 | 0.993 | 0.889 | 0.674 | 1.08 | 1.41 | 1.21 | 1.16
7 | NCI-H1650 | – | – | – | – | 0.363 | 0.493 | 0.401 | 0.26 | 0.405 | 0.454 | 0.531 | 0.334 | 0.961 | 1.1 | 1.01 | – | – | – | – | –
8 | NCI-H1793 | 0.926 | 0.306 | 0.385 | 0.146 | 0.354 | 0.376 | 0.465 | 0.411 | 1.24 | – | 1.11 | 0.529 | – | – | – | – | 1.18 | 0.896 | 1.01 | 1.21
9 | NCI-H2009 | – | – | – | – | 0.275 | 0.115 | 0.21 | 0.198 | 1.02 | 0.909 | 0.83 | 0.959 | 0.972 | 0.921 | 0.915 | 0.603 | 1.15 | 1.11 | 1.05 | 1.11
10 | NCI-H2023 | – | – | – | – | 0.49 | 0.444 | 0.435 | 0.106 | 0.267 | 0.252 | 0.226 | 0.121 | 0.66 | – | 0.713 | 0.357 | 0.733 | 0.735 | 0.669 | 0.497
11 | NCI-H2170 | – | 0.816 | 0.824 | 0.819 | 0.379 | 0.327 | 0.401 | 0.325 | 0.258 | 0.278 | 0.27 | 0.208 | 1.34 | 1.08 | 1.14 | 1.05 | – | – | – | –
12 | NCI-H2228 | – | – | – | – | 0.692 | 0.883 | 0.589 | 0.517 | 0.361 | 0.323 | 0.244 | 0.31 | 0.474 | 0.511 | 0.727 | 0.262 | 0.682 | 0.551 | 0.669 | 0.596
13 | NCI-H2342 | 0.589 | 0.409 | 0.554 | 0.353 | 0.53 | 0.523 | 0.556 | 0.533 | – | 0.729 | 0.78 | 0.532 | – | – | – | – | – | – | – | –
14 | SK-LU-1 | – | – | – | – | 0.474 | 0.372 | 0.362 | 0.326 | 1.06 | 0.871 | 0.897 | 0.388 | 0.956 | – | 0.79 | 0.309 | 1.03 | – | 0.932 | 0.345
15 | SK-MES-1 | – | – | – | – | 0.301 | 0.292 | 0.292 | 0.289 | 0.999 | 0.84 | 0.881 | – | 1.06 | 0.94 | 0.92 | 0.865 | 1.1 | 1.08 | 1 | 1.03
16 | SW 900 | 0.675 | 0.571 | 0.571 | 0.377 | 0.566 | 0.568 | 0.498 | 0.63 | 0.462 | 0.479 | 0.517 | 0.471 | – | – | – | – | – | – | – | –
17 | SW 1573 | – | – | – | – | 0.39 | 0.363 | 0.417 | 0.09 | 0.911 | – | 0.719 | 0.374 | 0.984 | 0.86 | 0.89 | 0.753 | 0.805 | 0.786 | 0.79 | 0.378
18 | UMC-11 | – | – | – | – | 0.284 | 0.355 | 0.334 | 0.188 | 0.869 | 0.788 | 0.772 | 0.474 | 0.558 | 0.578 | 0.541 | 0.204 | 0.991 | 0.989 | 0.945 | 0.687
